Activity calls are given as the source filed them. How the calls were made is not given here.
System: S. cerevisiae tim23-1 mutant growth, luminescence
Assay: analog potency on tim23-1 yeast growth – luminescence, S. cerevisiae, SAR follow-up (AID 602375)

SMILES | IC50
O=c1cc(CSc2ccc(C(F)(F)F)cn2)nc2ccc(Br)cn12 | > 99 µM (inactive)
N=c1c2c(-c3ccccc3)c(-c3ccccc3)n(Cc3ccco3)c2ncn1CCCN1CCOCC1 | > 99 µM (inactive)
O=C(Nc1ccn[nH]1)c1cccc(OCc2cccnc2)c1 | > 99 µM (inactive)
O=S(=O)(Nc1ccc(-c2cn3c(n2)SCC3)cc1)c1cccnc1 | > 99 µM (inactive)
Cc1ccc(-c2nc3ccc(NC(=O)c4cccs4)cc3[nH]2)o1 | 1.42 µM
N#Cc1c(-c2ccccc2)cc(-c2ccc(O)cc2)nc1N | 2.9 µM
O=C(Nc1ccc2nc(-c3ccc(Br)o3)[nH]c2c1)c1cccs1 | 0.882 µM
N/C(Cc1cccc2ccccc12)=N\OC(=O)COc1ccc(Cl)cc1Cl | 19.1 µM
CCN1CCc2nc3sc(C(=O)Nc4cc(Cl)ccc4OC)c(N)c3cc2C1 | > 99 µM (inactive)
Cc1nc2scc(C)n2c(=O)c1S(=O)(=O)Nc1ccc(N2CCOCC2)cc1 | 16.3 µM
Cc1cc(OCC(=O)O/N=C(\N)Cc2ccc(Cl)cc2)ccc1Br | 3.69 µM
COc1ccc2c(C)cc(SCc3cc(=O)n4cc(C)ccc4n3)nc2c1 | > 99 µM (inactive)
Cc1ccc2nc(CSc3nc(C)c(C)c(C)c3C(N)=O)cc(=O)n2c1 | 29.6 µM
Cc1nc(SCc2cc(=O)n3cc(Br)ccc3n2)c(C#N)c(C)c1C | > 99 µM (inactive)
Cc1csc(NC(=O)c2sc3nc4c(cc3c2N)CN(C)CC4)n1 | > 99 µM (inactive)
O=C(CSc1cccc[n+]1[O-])Nc1ccccc1Oc1ccccc1 | 1.06 µM
CC(C)(C)c1csc(NC(=O)c2ccc(Cl)s2)n1 | 17.3 µM
N/C(Cc1ccc(Cl)cc1)=N\OC(=O)COc1ccccc1Cl | 4.54 µM
O=c1cc(C(F)F)oc2c1ccc1ccccc12 | > 99 µM (inactive)
COc1ccc(Cl)cc1NS(=O)(=O)c1c(C)nc2scc(C)n2c1=O | > 99 µM (inactive)
N/C(=N\OC(=O)c1ccc2ncsc2c1)c1ccccc1 | 14.8 µM
O=C1OC(c2ccccc2)=N/C1=C\C=C\c1ccco1 | 2.44 µM

SMILES | IC50
Cc1ccc2nc(CSc3ccc(S(=O)(=O)N4CCCC4)cn3)cc(=O)n2c1 | > 99 µM (inactive)
O=C(Nc1ccc2nc(-c3ccco3)[nH]c2c1)c1cccs1 | 0.459 µM
O=c1cc(CSc2ccc(S(=O)(=O)N3CCCCC3)cn2)nc2ccc(Br)cn12 | 70.2 µM
Cc1nc2scc(C)n2c(=O)c1S(=O)(=O)Nc1ccc(Cl)c(C(F)(F)F)c1 | > 99 µM (inactive)
Cc1cccn2c(=O)cc(CSc3cc(C(=O)NC4CC4)c4ccccc4n3)nc12 | > 99 µM (inactive)
CC(=O)c1ccc(NS(=O)(=O)c2c(C)nc3scc(C)n3c2=O)cc1 | 15.9 µM
Cc1ccc2nc(CS(=O)(=O)c3ncccc3Cl)cc(=O)n2c1 | > 99 µM (inactive)
Cc1ccc(S(=O)(=O)Cc2cc(=O)n3ccccc3n2)nc1 | > 99 µM (inactive)
Cc1nc2scc(C)n2c(=O)c1S(=O)(=O)Nc1ccc(N2CCN(C(=O)C(C)C)CC2)cc1 | > 99 µM (inactive)
O=C(NN=C/C=C\c1ccco1)c1cccs1 | 6.87 µM
CCOc1cc2ccccc2cc1C(=O)O/N=C(\N)c1ccc(Cl)cc1 | 1.57 µM
CCOc1ccc2nc(N3C(=O)CNC3=S)sc2c1 | > 99 µM (inactive)
Cc1nc2scc(C)n2c(=O)c1S(=O)(=O)Nc1ccc(F)cc1Cl | 52.7 µM
O=C(O)c1cccnc1SCc1cc(=O)n2cc(Br)ccc2n1 | > 99 µM (inactive)
Cc1ccc(-c2nn(-c3ccccc3)cc2NC(=O)CCl)cc1 | 1.75 µM
O=C(Nc1nc2c(s1)Cc1ccccc1-2)c1ccc(Br)s1 | > 99 µM (inactive)
COc1ccc([N+](=O)[O-])cc1NS(=O)(=O)c1c(C)nc2scc(C)n2c1=O | > 99 µM (inactive)
Cc1nn(Cc2cccc(C(=O)O/N=C(\N)c3ccc(Cl)cc3)c2)c(C)c1Br | 2.65 µM
Cc1nc2scc(C)n2c(=O)c1S(=O)(=O)Nc1ccccc1 | > 99 µM (inactive)
Cn1c(SCc2cccc(/C(N)=N/OC(=O)c3ccc(Cl)cc3)c2)nnc1C(F)(F)F | 2.37 µM
COc1ccc(/C=C/C(=O)Nc2ccc3c(c2)CCC3)cc1OC | 1.72 µM
O=C(N/N=C/C(Cl)=C\c1ccccc1)c1cccs1 | 2.3 µM

SMILES | IC50
O=c1cc(CSc2ccccn2)nc2ccccn12 | > 99 µM (inactive)
Cc1ccc(-c2cc(NC(=O)c3c(C)noc3C)nc(-c3ccccc3)c2)cc1 | > 99 µM (inactive)
CCN(CC)S(=O)(=O)c1ccc(C(=O)OCn2nnc3ccccc3c2=O)cc1 | 13 µM
CCOc1ccc(C(=O)O/N=C(\N)c2ccc(OC)cc2)cc1OCC | 1.48 µM
Cc1nc2scc(C)n2c(=O)c1S(=O)(=O)Nc1cc(C(F)(F)F)ccc1Cl | > 99 µM (inactive)
Cc1nc2scc(C)n2c(=O)c1S(=O)(=O)Nc1ccc(Oc2ccc(Cl)cc2)cc1 | > 99 µM (inactive)
N#Cc1ccc(C2N=C(c3ccccc3)NO2)cc1 (stereo unspecified) | > 99 µM (inactive)
Cc1c2c(n(Cc3ccco3)c1C)N=CN1CCS(=O)(=O)N=C21 | > 99 µM (inactive)
CCCN(C(=O)c1ccc([N+](=O)[O-])c(C)c1)c1c(N)n(Cc2ccccc2)c(=O)[nH]c1=O | 0.987 µM
Cc1ccc(/C(N)=N/OC(=O)c2ccccc2)cc1F | 1.52 µM
N/C(=N\OC(=O)c1ccc2ccccc2c1)c1ccc(I)cc1 | > 99 µM (inactive)
COc1ccc(/C(N)=N/OC(=O)c2ccc(C(F)(F)F)cc2)c(OC)c1 | > 99 µM (inactive)
N/C(=N\OC(=O)c1ccc(Cl)cc1)c1ccc(Cl)cc1 | 3.02 µM
Cc1nc2scc(C)n2c(=O)c1S(=O)(=O)Nc1ccc(N2CCN(S(C)(=O)=O)CC2)cc1 | > 99 µM (inactive)
Cc1nc2scc(C)n2c(=O)c1S(=O)(=O)Nc1cccc(O)c1 | > 99 µM (inactive)
CCn1c(N2CCN(S(=O)(=O)c3ccc(OC)cc3)CC2)nc2ccccc21 | 3.69 µM
CN1CCN(c2nc(-c3cccnc3)nc3ccccc23)CC1 | > 99 µM (inactive)
CCN(C(=O)c1cccc2ncccc12)c1c(N)n(Cc2ccccc2)c(=O)[nH]c1=O | > 99 µM (inactive)
O=C(Nc1ccn[nH]1)c1ccc(Br)cc1Cl | > 99 µM (inactive)
C(/C=C/c1ccccc1)=NNc1nc2ccccc2[nH]1 | 11.2 µM
Cc1cc2cc(CNC(=O)c3ccc(F)c(F)c3)ccc2[nH]1 | > 99 µM (inactive)
CC(=O)c1ccc2[nH]c3c(c2c1)CCCC3=O | > 99 µM (inactive)

SMILES | IC50
N#Cc1c(-c2ccc([N+](=O)[O-])cc2)cc(-c2ccccc2)nc1N | > 99 µM (inactive)
N/C(=N\OC(=O)c1ccc2ncsc2c1)c1ccc(Cl)cc1Cl | 1.48 µM
N/C(=N\OC(=O)c1ccc(Cl)cc1)c1ccc(-c2csnn2)cc1 | > 99 µM (inactive)
N/C(=N\OC(=O)c1ccc(Cl)cc1)c1ccc2nonc2c1 | > 99 µM (inactive)
Cc1nc2scc(C)n2c(=O)c1S(=O)(=O)Nc1ccc(N2CCOCC2)c(Cl)c1 | > 99 µM (inactive)
Cc1nc2scc(C)n2c(=O)c1S(=O)(=O)Nc1ccc(OC(F)(F)F)cc1 | 16.5 µM
O=C(Nc1nc2ccccc2s1)C1CCCN1S(=O)(=O)c1ccc(Cl)cc1 (stereo unspecified) | 12 µM
O=C(Nc1ccc(-c2cn3ccccc3n2)cc1)c1cccs1 | 0.897 µM
N/C(=N\OC(=O)c1ccc(Cl)cc1)c1ccc(Oc2ccc(C(F)(F)F)cn2)cc1 | 0.57 µM
CN1CCc2nc3sc(C(=O)C45CC6CC(CC(C6)C4)C5)c(N)c3cc2C1 | 18.1 µM
CC1(C)C=Cc2cc(/C(N)=N/OC(=O)c3ccccc3)ccc2O1 | 0.617 µM
N#C/C(=C\c1ccc(Cl)cc1)C(=O)Nc1cccnc1 | 16 µM
O=C(CSCc1ccccc1)Nc1cc(S(=O)(=O)N2CCOCC2)ccc1Oc1ccccc1 | > 99 µM (inactive)
COc1ccc(C2N=C(c3ccccc3C)NO2)cc1O (stereo unspecified) | > 99 µM (inactive)
CC(=O)Nc1ccc(C(C(F)(F)F)(C(F)(F)F)C(F)(F)F)cc1 | > 99 µM (inactive)
CN(C(=O)c1cccc(S(C)(=O)=O)c1)c1c(N)n(Cc2ccccc2)c(=O)[nH]c1=O | > 99 µM (inactive)
O=C(O/N=C(/c1ccc(Br)cc1)N1CCOCC1)c1ccccc1 | 0.787 µM
Cc1ccc2nc(NC(=O)C3CCCN3S(C)(=O)=O)sc2c1 (stereo unspecified) | 91.9 µM
CC(C)Cn1cnc2c(c(-c3ccccc3)c(-c3ccccc3)n2Cc2ccco2)c1=N | 21.6 µM
Cc1ccc2nc(N3CCN(S(C)(=O)=O)CC3)[nH]c2c1 | > 99 µM (inactive)
